Numbering of substitutions follows the chain as printed. Where a SMILES comes first, the peptide text is derived from it.
Assays:
[1] = biological target: T1, hTAS1R2 + hTAS1R3 C801I^7.39 (Homo sapiens, UniProt Q7RTX0+Q8TE23, C801I); experiment: Calcium response (FLIPR), hTAS1R3 mutant coexpressed with hTAS1R2; format: cell-based; details: for EC50 / Emax: variant C801I^7.39; for Emax: read-out: maximal signal (% of wt)
T1 construct: expressed in transfected cells; host or cells: HEK293T cells stably expressing G16Gust44
T1 sequence (Q7RTX0 21-852 C801I): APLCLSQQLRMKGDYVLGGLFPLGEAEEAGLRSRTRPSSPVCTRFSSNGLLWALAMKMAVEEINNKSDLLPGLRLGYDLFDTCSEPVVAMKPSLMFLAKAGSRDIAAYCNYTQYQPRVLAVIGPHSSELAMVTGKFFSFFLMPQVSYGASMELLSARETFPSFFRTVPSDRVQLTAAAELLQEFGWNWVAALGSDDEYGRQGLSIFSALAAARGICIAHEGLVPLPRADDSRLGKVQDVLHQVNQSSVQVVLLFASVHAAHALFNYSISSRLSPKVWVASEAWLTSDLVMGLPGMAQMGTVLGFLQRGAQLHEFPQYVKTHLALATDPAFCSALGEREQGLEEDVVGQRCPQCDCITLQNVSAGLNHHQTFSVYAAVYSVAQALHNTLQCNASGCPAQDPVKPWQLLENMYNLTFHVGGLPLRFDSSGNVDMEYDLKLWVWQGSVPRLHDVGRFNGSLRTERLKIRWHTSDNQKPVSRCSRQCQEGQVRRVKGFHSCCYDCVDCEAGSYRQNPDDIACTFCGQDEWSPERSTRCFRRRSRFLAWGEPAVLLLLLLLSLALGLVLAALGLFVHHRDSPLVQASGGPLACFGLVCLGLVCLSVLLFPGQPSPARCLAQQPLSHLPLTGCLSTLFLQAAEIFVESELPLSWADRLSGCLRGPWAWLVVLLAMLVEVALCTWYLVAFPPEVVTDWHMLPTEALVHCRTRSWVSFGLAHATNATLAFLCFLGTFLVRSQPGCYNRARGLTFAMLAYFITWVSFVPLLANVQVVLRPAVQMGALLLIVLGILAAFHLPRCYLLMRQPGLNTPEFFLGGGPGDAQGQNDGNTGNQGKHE
T1 sequence (Q8TE23 20-839): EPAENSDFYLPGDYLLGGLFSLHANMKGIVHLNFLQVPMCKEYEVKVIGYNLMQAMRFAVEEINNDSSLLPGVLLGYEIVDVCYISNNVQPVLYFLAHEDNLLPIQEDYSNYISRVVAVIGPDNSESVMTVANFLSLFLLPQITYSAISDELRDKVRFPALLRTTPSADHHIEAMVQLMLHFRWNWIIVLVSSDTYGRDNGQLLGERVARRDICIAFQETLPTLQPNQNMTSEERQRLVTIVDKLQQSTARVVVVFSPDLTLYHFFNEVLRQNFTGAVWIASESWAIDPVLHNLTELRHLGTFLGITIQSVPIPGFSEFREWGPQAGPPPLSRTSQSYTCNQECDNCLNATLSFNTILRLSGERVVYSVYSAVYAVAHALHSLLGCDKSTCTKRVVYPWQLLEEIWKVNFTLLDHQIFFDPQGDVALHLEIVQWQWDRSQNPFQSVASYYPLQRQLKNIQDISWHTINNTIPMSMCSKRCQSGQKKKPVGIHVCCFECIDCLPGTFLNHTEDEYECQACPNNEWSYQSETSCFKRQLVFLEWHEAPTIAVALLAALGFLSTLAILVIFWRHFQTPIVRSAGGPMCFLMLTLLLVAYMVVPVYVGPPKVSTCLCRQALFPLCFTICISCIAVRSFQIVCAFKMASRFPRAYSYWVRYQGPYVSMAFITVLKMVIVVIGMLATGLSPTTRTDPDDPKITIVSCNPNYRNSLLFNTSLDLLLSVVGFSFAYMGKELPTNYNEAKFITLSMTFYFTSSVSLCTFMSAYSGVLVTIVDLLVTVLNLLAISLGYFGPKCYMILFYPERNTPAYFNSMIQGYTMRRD
Protocol: (§1) The cDNAs for TAS1Rs tagged at the C-terminus with the herpes simplex virus glycoprotein D (HSV) were transiently transfected into HEK293T cells stably expressing the chimeric G-protein subunit G16Gust44 [44] using Lipofectamine 2000 (Invitrogen, Carlsbad, CA) according to the manufacturer's protocol. 3–4 hours after transfection, DMEM was replaced by low-glucose DMEM supplemented with GlutaMAX and 10% dialyzed FBS (Invitrogen, Carlsbad, CA). 24 h post transfection, cells were loaded for 1 h with the calcium sensitive dye Fluo4-AM (2 μg/ml in DMEM, Molecular Probes, Carlsbad, CA). […] We monitored calcium mobilization following receptor stimulation with sweet tastants by an automated fluorometric imaging plate reader (FLIPR, Molecular Devices, Sunnyvale, CA). Compounds used as stimuli (Sigma-Aldrich, St. Louis, MO; Merck, Whitehouse Station, NJ) were dissolved in C1 solution. All data were collected from at least three independent experiments carried out in duplicate. The obtained calcium signals were corrected for the response of mock transfected cells and normalized to the fluorescence of cells prior to the application of the stimulus using ΔF/F = (F-F0)/F0.

[2] = biological target: T2, hTAS1R2 + hTAS1R3 H734A^5.47 (Homo sapiens, UniProt Q7RTX0+Q8TE23, H734A); experiment: as above; format: cell-based; details: for receptor response: mutant H734A^5.47; for EC50: variant H734A^5.47, n.f. = no response to any tested sweetener
T2 construct: expressed in transfected cells; host or cells: HEK293T cells stably expressing G16Gust44
T2 sequence (Q8TE23 20-839): T1 sequence (Q8TE23 20-839)
T2 sequence (Q7RTX0 21-852 H734A): T1 sequence (Q7RTX0 21-852 C801I) with H714A, I781C
Protocol: as §1

Row | Structure (SMILES) | EC50 [1] | Emax [1] | receptor response [2] | EC50 [2] | receptor activation ([1]; mutant C801I^7.39, any tested concentration)
1 | COc1ccc(CCC(=O)c2c(O)cc(O[C@@H]3O[C@H](CO)[C@@H](O)[C@H](O)[C@H]3O[C@@H]3O[C@@H](C)[C@H](O)[C@@H](O)[C@H]3O)cc2O)cc1O [NHDC, neohesperidin dihydrochalcone] | 1.6 ± 0.7 mM | 70 ± 13% | did not respond | n.f. | –
2 | CC1=CC(=O)NS(=O)(=O)O1 [acesulfame K] | – | – | did not respond | – | –
3 | COC(=O)[C@H](Cc1ccccc1)NC(=O)[C@@H](N)CC(=O)O [aspartame] (HELM PEPTIDE1{D.F.[CO[*:1]]}$$$$V2.0) | 1.2 ± 0.5 mM | 50 ± 9% | did not respond | n.f. | –
4 | O=S(=O)(O)NC1CCCCC1 [cyclamate] | – | – | did not respond | – | could not be activated at any tested concentration

— PMC2099433, “The binding site for neohesperidin dihydrochalcone at the human sweet taste receptor” (BMC Structural Biology, 2007)
